# Source: PubChem BioAssay (NCI)
#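 Tested at 5 concentrations; 48 h exposure; 96-well plates; endpoints linearly interpolated, else capped at highest concentration. TGI is the concentration that stops growth completely.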
# How the values were obtained:
# Assay in all cases: growth of human tumour cells (NCI), 48 h
# [1] = system: 786-0 renal
# [2] = system: A498 renal
# [3] = system: A549 NSCLC
# [4] = system: ACHN renal
# [5] = system: BT-549 breast
# [6] = system: CAKI-1 renal
# [7] = system: CCRF-CEM leukemia
# [8] = system: COLO 205 colon
# [9] = system: DU-145 prostate
# [10] = system: EKVX NSCLC
# [11] = system: HCC-2998 colon
# [12] = system: HCT-116 colon
# [13] = system: HCT-15 colon
# [14] = system: HL-60(TB) leukemia
# [15] = system: HOP-62 NSCLC
# [16] = system: HOP-92 NSCLC
# [17] = system: HS 578T breast
# [18] = system: HT29 colon
# [19] = system: IGROV1 ovarian
# [20] = system: K-562 leukemia
# [21] = system: KM12 colon
# [22] = system: LOX IMVI melanoma
# [23] = system: M14 melanoma
# [24] = system: MCF7 breast
# [25] = system: MDA-MB-231 breast
# [26] = system: MDA-MB-435
# [27] = system: MDA-N
# [28] = system: MOLT-4 leukemia
# [29] = system: NCI-H226 lung
# [30] = system: NCI-H23 lung
# [31] = system: NCI-H460 lung
# [32] = system: NCI-H522 lung
# [33] = system: NCI/ADR-RES ovarian
# [34] = system: OVCAR-3 ovarian
# [35] = system: OVCAR-4 ovarian
# [36] = system: OVCAR-5 ovarian
# [37] = system: OVCAR-8 ovarian
# [38] = system: PC-3 prostate
# [39] = system: RPMI-8226 leukemia
# [40] = system: RXF 393 renal
# [41] = system: SF-295 CNS
# [42] = system: SK-MEL-2 melanoma
# [43] = system: SK-MEL-28 melanoma
# [44] = system: SK-MEL-5 melanoma
# [45] = system: SK-OV-3 ovarian
# [46] = system: SNB-19 CNS
# [47] = system: SNB-75 CNS
# [48] = system: SW-620 colon
# [49] = system: TK-10 renal
# [50] = system: U251 CNS
# [51] = system: UACC-257 melanoma
# [52] = system: UACC-62 melanoma
# [53] = system: UO-31 renal
# [54] = system: MALME-3M melanoma
# [55] = system: SF-268 CNS
# [56] = system: SN12C renal
# [57] = system: SR leukemia
smiles,measurement,setting,value
Cc1ccc2nc(-n3c(/C=C/c4ccccc4O)nc4ccccc4c3=O)sc2c1,TGI,[1],> 100 µM
same,TGI,[2],> 100 µM
same,TGI,[3],> 100 µM
same,TGI,[4],> 100 µM
same,TGI,[5],> 100 µM
same,TGI,[6],> 100 µM
same,TGI,[7],> 100 µM
same,TGI,[8],> 100 µM
same,TGI,[9],> 100 µM
same,TGI,[10],> 100 µM
same,TGI,[11],> 100 µM
same,TGI,[12],> 100 µM
same,TGI,[13],> 100 µM
same,TGI,[14],> 100 µM
same,TGI,[15],> 100 µM
same,TGI,[16],> 100 µM
same,TGI,[17],> 100 µM
same,TGI,[18],> 100 µM
same,TGI,[19],> 100 µM
same,TGI,[20],> 100 µM
same,TGI,[21],> 100 µM
same,TGI,[22],> 100 µM
same,TGI,[23],> 100 µM
same,TGI,[24],> 100 µM
same,TGI,[25],> 100 µM
same,TGI,[26],> 100 µM
same,TGI,[27],> 100 µM
same,TGI,[28],> 100 µM
same,TGI,[29],> 100 µM
same,TGI,[30],> 100 µM
same,TGI,[31],> 100 µM
same,TGI,[32],> 100 µM
same,TGI,[33],> 100 µM
same,TGI,[34],> 100 µM
same,TGI,[35],> 100 µM
same,TGI,[36],> 100 µM
same,TGI,[37],> 100 µM
same,TGI,[38],> 100 µM
same,TGI,[39],> 100 µM
same,TGI,[40],> 100 µM
same,TGI,[41],> 100 µM
same,TGI,[42],> 100 µM
same,TGI,[43],> 100 µM
same,TGI,[44],> 100 µM
same,TGI,[45],> 100 µM
same,TGI,[46],> 100 µM
same,TGI,[47],> 100 µM
same,TGI,[48],> 100 µM
same,TGI,[49],> 100 µM
same,TGI,[50],> 100 µM
same,TGI,[51],> 100 µM
same,TGI,[52],> 100 µM
same,TGI,[53],> 100 µM
COc1ccc(N=Nc2c(O)ccc3ccccc23)cc1,TGI,[1],> 100 µM
same,TGI,[3],39.5 µM
same,TGI,[4],57.7 µM
same,TGI,[5],56.1 µM
same,TGI,[6],> 100 µM
same,TGI,[7],> 100 µM
same,TGI,[8],> 100 µM
same,TGI,[10],34.8 µM
same,TGI,[12],> 100 µM
same,TGI,[13],> 100 µM
same,TGI,[14],> 100 µM
same,TGI,[15],26.7 µM
same,TGI,[16],47.7 µM
same,TGI,[17],23.2 µM
same,TGI,[18],38 µM
same,TGI,[19],24.2 µM
same,TGI,[21],24.9 µM
same,TGI,[22],> 100 µM
same,TGI,[23],> 100 µM
same,TGI,[54],32.9 µM
same,TGI,[25],96.5 µM
same,TGI,[26],> 100 µM
same,TGI,[27],> 100 µM
same,TGI,[28],> 100 µM
same,TGI,[29],47.6 µM
same,TGI,[30],85.2 µM
same,TGI,[32],60.9 µM
same,TGI,[33],> 100 µM
same,TGI,[34],> 100 µM
same,TGI,[35],32.3 µM
same,TGI,[36],60.6 µM
same,TGI,[37],29.1 µM
same,TGI,[38],> 100 µM
same,TGI,[40],> 100 µM
same,TGI,[55],37.7 µM
same,TGI,[41],30.1 µM
same,TGI,[42],> 100 µM
same,TGI,[43],> 100 µM
same,TGI,[45],28.1 µM
same,TGI,[56],> 100 µM
same,TGI,[47],37.7 µM
same,TGI,[57],41.7 µM
same,TGI,[48],> 100 µM
same,TGI,[49],34 µM
same,TGI,[50],30.6 µM
same,TGI,[51],> 100 µM
same,TGI,[52],36.3 µM
same,TGI,[53],> 100 µM
